What was measured:
[1] = tested on: Rabbit Psoas myofibrils (skeletal myosin ATPase); assay: Myofibril ATPase assay, rabbit psoas (skeletal) myofibrils; format: biochemical; conditions: Y75 value (no ‡ mark); rabbit psoas myofibrils
Outline: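 ATPase activity of Triton-washed myofibrils was measured by PK/LDH coupling, following NADH loss at 340 nm every 1.5–2 min for 75 min in PIPES/Ca/EGTA buffer at pH 7.0. Slopes, normalized to vehicle (100%), were fitted to a 4-parameter logistic model. Values are Y75 (25% inhibition) or Y125 (activators).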

[2] = tested on: Porcine atria myofibrils (atrial myosin ATPase); assay: Myofibril ATPase assay, porcine atria myofibrils; format: biochemical; conditions: Y75 value (no ‡ mark); porcine atria myofibrils
Outline: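 Porcine atrial myofibrils were tested in a PK/LDH-coupled system where ADP from myosin ATPase drives NADH oxidation. Absorbance at 340 nm was read every 1.5-2 min for 75 min and slopes were normalized to vehicle wells. A 4-parameter logistic fit gave Y75 (25% inhibition) or Y125 (activation) concentrations.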

[3] = molecular target: T1, Porcine ventricle myofibrils (ventricular myosin ATPase) (Sus scrofa, UniProt P79293); assay: Myofibril ATPase assay, porcine ventricle myofibrils; format: biochemical, porcine (Yucatan minipigs); conditions: Y75 value (no ‡ mark); porcine ventricle myofibrils
T1 construct: Myofibrils from porcine cardiac muscle was isolated from the left ventricle of Yucatan minipigs; tissue Exemplar Genetics; host or cells: left ventricle of Yucatan minipigs, myofibrils prepared in house
T1 sequence (P79293 whole entry): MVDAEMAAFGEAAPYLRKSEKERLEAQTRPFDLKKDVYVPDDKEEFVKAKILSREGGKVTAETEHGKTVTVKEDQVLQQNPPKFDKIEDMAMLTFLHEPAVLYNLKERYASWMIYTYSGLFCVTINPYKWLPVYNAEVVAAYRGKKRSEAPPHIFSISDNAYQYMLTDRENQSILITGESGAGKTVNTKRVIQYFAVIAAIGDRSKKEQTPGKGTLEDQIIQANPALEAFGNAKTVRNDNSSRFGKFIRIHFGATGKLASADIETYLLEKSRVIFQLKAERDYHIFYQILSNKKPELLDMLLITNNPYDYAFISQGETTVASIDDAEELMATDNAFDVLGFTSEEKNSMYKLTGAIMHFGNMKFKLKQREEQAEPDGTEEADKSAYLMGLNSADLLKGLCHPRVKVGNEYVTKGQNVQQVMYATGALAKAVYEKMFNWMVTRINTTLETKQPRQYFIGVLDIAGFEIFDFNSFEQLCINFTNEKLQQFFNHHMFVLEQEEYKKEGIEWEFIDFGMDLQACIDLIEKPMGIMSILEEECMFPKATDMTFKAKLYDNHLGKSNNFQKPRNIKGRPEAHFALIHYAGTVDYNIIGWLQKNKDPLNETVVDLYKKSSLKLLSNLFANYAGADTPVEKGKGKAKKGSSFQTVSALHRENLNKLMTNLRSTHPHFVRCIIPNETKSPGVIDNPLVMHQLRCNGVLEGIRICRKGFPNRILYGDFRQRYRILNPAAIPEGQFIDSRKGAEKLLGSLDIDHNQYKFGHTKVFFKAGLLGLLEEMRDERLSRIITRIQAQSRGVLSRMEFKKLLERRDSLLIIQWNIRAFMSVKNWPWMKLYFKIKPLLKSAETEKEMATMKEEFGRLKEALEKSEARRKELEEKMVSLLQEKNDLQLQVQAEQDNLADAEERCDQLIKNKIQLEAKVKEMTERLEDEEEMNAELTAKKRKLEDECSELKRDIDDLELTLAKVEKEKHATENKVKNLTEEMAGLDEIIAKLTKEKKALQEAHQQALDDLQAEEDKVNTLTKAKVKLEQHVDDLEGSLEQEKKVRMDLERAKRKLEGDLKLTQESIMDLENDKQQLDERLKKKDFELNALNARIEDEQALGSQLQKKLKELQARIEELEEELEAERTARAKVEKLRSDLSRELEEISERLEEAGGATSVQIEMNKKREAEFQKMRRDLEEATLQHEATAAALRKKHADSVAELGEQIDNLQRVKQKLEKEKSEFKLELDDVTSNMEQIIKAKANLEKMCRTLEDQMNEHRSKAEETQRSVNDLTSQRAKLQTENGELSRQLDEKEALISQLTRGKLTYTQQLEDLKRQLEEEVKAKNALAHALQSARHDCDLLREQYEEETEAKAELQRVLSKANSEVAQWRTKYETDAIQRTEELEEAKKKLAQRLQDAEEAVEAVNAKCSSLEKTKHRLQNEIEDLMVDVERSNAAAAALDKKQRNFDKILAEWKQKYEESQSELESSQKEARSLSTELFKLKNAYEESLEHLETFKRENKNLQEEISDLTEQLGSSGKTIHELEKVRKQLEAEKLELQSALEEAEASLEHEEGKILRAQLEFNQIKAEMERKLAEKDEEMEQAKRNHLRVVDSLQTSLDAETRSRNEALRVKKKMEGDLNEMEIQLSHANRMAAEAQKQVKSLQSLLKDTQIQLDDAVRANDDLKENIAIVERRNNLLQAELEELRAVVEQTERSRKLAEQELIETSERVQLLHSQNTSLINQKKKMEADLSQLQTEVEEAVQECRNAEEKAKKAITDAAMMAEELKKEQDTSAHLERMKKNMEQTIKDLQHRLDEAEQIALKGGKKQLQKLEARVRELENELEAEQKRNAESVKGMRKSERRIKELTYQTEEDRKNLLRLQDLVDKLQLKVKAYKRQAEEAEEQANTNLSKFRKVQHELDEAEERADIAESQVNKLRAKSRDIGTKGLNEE
Outline: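 Test compounds acted on myofibrils isolated from the left ventricle of Yucatan minipigs. ADP formation was coupled via pyruvate kinase/lactate dehydrogenase to NADH oxidation, monitored kinetically at 340 nm over 75 min. Rates relative to vehicle were fitted with a 4-parameter logistic model, reported as Y75 (25% inhibition) or Y125 (activation) concentrations.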

Row | Structure (SMILES) | Skeletal EC25 [1] | Atrial EC25 [2] | Ventricular EC25 [3]
1 | Cc1c(CC(=O)N[C@@H]2COCc3cc(C#N)cnc32)c(=O)[nH]c2ccc(F)cc12 [compound 1056] | 100 µM | 100.00 µM | 100.00 µM
2 | Cc1c(CC(=O)N[C@H]2COCc3cc(C#N)cnc32)c(=O)[nH]c2ccc(F)cc12 [compound 1057] | 21 µM | 100.00 µM | 100.00 µM
3 | Cc1cc(C#N)nnc1[C@@H](C)NC(=O)Cc1c(C)c2cc(F)ccc2[nH]c1=O [compound 1058] | 29.21 µM | 1.92 µM | 6.86 µM
4 | Cc1cc(C#N)nnc1[C@H](C)NC(=O)Cc1c(C)c2cc(F)ccc2[nH]c1=O [compound 1059] | 0.39 µM | 0.13 µM | 0.16 µM
5 | Cc1cc([C@@H](C)NC(=O)Cc2c(C)c3cc(F)ccc3[nH]c2=O)ncc1F [compound 1060] | 100.00 µM | 13.11 µM | 100.00 µM
6 | Cc1cc([C@H](C)NC(=O)Cc2c(C)c3cc(F)ccc3[nH]c2=O)ncc1F [compound 1061] | 100.00 µM | 2.49 µM | 100.00 µM
7 | Cc1c(CC(=O)N[C@@H]2COc3cc(C#N)cnc32)c(=O)[nH]c2ccc(F)cc12 [compound 1062] | 9.26 µM | 3.49 µM | 6.56 µM
8 | Cc1c(CC(=O)N[C@H]2COc3cc(C#N)cnc32)c(=O)[nH]c2ccc(F)cc12 [compound 1063] | 0.22 µM | 0.16 µM | 0.76 µM
9 | Cc1nc(C#N)cnc1[C@@H](C)NC(=O)Cc1c(C)c2cc(F)ccc2[nH]c1=O [compound 1068] | 0.12 µM | 0.07 µM | 0.06 µM
10 | Cc1c(CC(=O)N[C@H](C)c2ccc(C#N)cn2)c(=O)[nH]c2cc(F)ccc12 [compound 1072] | 100.00 µM | 17.57 µM | 36.86 µM
11 | Cc1c(CC(=O)N[C@@H](C)c2ccc(C#N)cn2)c(=O)[nH]c2cc(F)ccc12 [compound 1073] | 100.00 µM | 53.69 µM | 89.23 µM
12 | Cc1c(CC(=O)N[C@H](C)c2ccc(C#N)cn2)c(=O)[nH]c2cccc(C#N)c12 [compound 1076] | 0.35 µM | 1.89 µM | 1.49 µM
13 | Cc1c(CC(=O)N[C@H](C)c2ncc(C#N)cc2F)c(=O)[nH]c2cccc(C#N)c12 [compound 1080] | 0.12 µM | 0.21 µM | 0.36 µM
14 | Cc1c(CC(=O)N[C@@H](C)c2ncc(C#N)cc2F)c(=O)[nH]c2cccc(C#N)c12 [compound 1081] | 0.03 µM | 0.12 µM | 0.28 µM
15 | Cc1nnccc1[C@@H](C)NC(=O)Cc1c(C)c2cc(F)ccc2[nH]c1=O [compound 1090] | 100.00 µM | 5.79 µM | 100.00 µM
16 | Cc1nnccc1[C@H](C)NC(=O)Cc1c(C)c2cc(F)ccc2[nH]c1=O [compound 1091] | 100.00 µM | 53.30 µM | 80.11 µM
17 | Cc1c(CC(=O)N[C@@H]2CCc3cc(C#N)cnc32)c(=O)[nH]c2ccc(F)cc12 [compound 1092] | 0.36 µM | 1.13 µM | 2.41 µM
18 | Cc1c(CC(=O)N[C@H]2CCc3cc(C#N)cnc32)c(=O)[nH]c2ccc(F)cc12 [compound 1093] | 100.00 µM | 100.00 µM | 100.00 µM
19 | C[C@@H](NC(=O)Cc1c(C#N)c2cc(F)ccc2[nH]c1=O)c1ncc(C#N)cc1F [compound 1094] | 2.26 µM | 100.00 µM | 100.00 µM

The remaining lines, values ahead:

Row | Skeletal EC25 [1] | Atrial EC25 [2] | Ventricular EC25 [3] | Structure (SMILES)
20 | 0.04 µM | 0.12 µM | 0.22 µM | Cc1nc(C#N)ncc1[C@H](C)NC(=O)Cc1c(C)c2cc(F)ccc2[nH]c1=O [compound 1053]
21 | 18 µM | 100.00 µM | 100.00 µM | N#Cc1cnc2c(c1)COC[C@@H]2NC(=O)Cc1cc2cc(F)c(F)cc2[nH]c1=O [compound 1055]
22 | 2.50 µM | 0.22 µM | 1.72 µM | Cc1c(CC(=O)N[C@H](C)c2ncc(C#N)cn2)c(=O)[nH]c2ccc(F)cc12 [compound 1070]
23 | 100.00 µM | 5.29 µM | 11.94 µM | Cc1c(CC(=O)N[C@@H](C)c2ncc(C#N)cn2)c(=O)[nH]c2ccc(F)cc12 [compound 1071]
24 | 100.00 µM | 100.00 µM | 100.00 µM | C[C@@H](NC(=O)Cc1cc2cc(F)c(F)cc2[nH]c1=O)c1cnc(C#N)nc1 [compound 1074]
25 | 8.39 µM | 16.51 µM | 15.41 µM | C[C@H](NC(=O)Cc1cc2cc(F)c(F)cc2[nH]c1=O)c1cnc(C#N)nc1 [compound 1075]
26 | 2.27 µM | 2.57 µM | 2.05 µM | Cc1c(CC(=O)N[C@H](C)c2ncc(C#N)cc2F)c(=O)[nH]c2cc(F)ccc12 [compound 1078]
27 | 0.14 µM | 0.44 µM | 3.04 µM | Cc1c(CC(=O)N[C@@H](C)c2ncc(C#N)cc2F)c(=O)[nH]c2cc(F)ccc12 [compound 1079]
28 | 100.00 µM | 100.00 µM | 100.00 µM | N#Cc1cnc2c(n1)CC[C@H]2NC(=O)Cc1cc2cc(F)c(F)cc2[nH]c1=O [compound 1082]
29 | 4.15 µM | 5.80 µM | 100.00 µM | N#Cc1cnc2c(n1)CC[C@@H]2NC(=O)Cc1cc2cc(F)c(F)cc2[nH]c1=O [compound 1083]
30 | 100.00 µM | 1.94 µM | 100.00 µM | C[C@@H](NC(=O)Cc1c(O)c2cc(F)c(F)cc2[nH]c1=O)c1ccc(C#N)cc1F [compound 1086]
31 | 100.00 µM | 5.78 µM | 100.00 µM | Cc1cc(C#N)ccc1[C@@H](C)NC(=O)Cc1c(O)c2cc(F)c(F)cc2[nH]c1=O [compound 1088]
32 | 100.00 µM | 6.41 µM | 42.07 µM | Cc1cc(C#N)ccc1[C@H](C)NC(=O)Cc1c(O)c2cc(F)c(F)cc2[nH]c1=O [compound 1089]
33 | 0.06 µM | 0.18 µM | 0.42 µM | C[C@H](NC(=O)Cc1c(C#N)c2cc(F)ccc2[nH]c1=O)c1ncc(C#N)cc1F [compound 1095]
34 | 12.10 µM | 31.81 µM | 100.00 µM | Cc1nc(C#N)ncc1[C@@H](C)NC(=O)Cc1cc2cc(F)c(F)cc2[nH]c1=O [compound 1096]
35 | 0.15 µM | 1.11 µM | 1.56 µM | Cc1nc(C#N)ncc1[C@H](C)NC(=O)Cc1cc2cc(F)c(F)cc2[nH]c1=O [compound 1097]
